Data published in US20260355189A1, “SMALL MOLECULE INHIBITORS OF NEUTROPHIL EXOCYTOSIS AND INFLAMMATION” (THE SCRIPPS RESEARCH INSTITUTE, priority 2022, published 2026).

Key:
[1] = test system: human neutrophils (secretory vesicle marker CD11b); test: Flow cytometry of secretory vesicle mobilization (CD11b) in human neutrophils; format: cell-based; conditions: 10 μM, 1 hour; GM-CSF + fMLP; relative to DMSO; N=15 donors; FIG. 7
Description: (§1) Human neutrophils were isolated from normal donor's blood by Ficoll density centrifugation, as described previously (23). Murine bone marrow-derived neutrophils were isolated using a Percoll gradient fractionation system as described (24). A three-layer Percoll gradient was used (52%, 64%, and 72%), and neutrophils were isolated from the 64-72% interface, washed, and used in the assays.
(§2) Method: The up-regulation of granule membrane-associated neutrophil markers at the plasma membrane was analyzed by flow cytometry. In these studies, flow cytometry analysis was performed by resuspension of 1×10^6 human neutrophils in phenol red-free RPMI 1640 medium, treated with a 10 μM solution of Inhibitors C1, C2, C4, C5, and C6 and Nexinhib 20 (C20) or DMSO control for 1 hour, and stimulated with physiological agonists GM-CSF (10 ng/ml) for 30 min followed by the addition of fMLP (1 μM) to induce degranulation or left untreated at 37 °C (non-stimulated, NS). The reactions were stopped by transferring the samples to ice and immediately spinning down the cells to initiate blocking and staining. To analyze the plasma membrane expression of plasma membrane markers, the cells were blocked in ice-cold PBS containing 1% BSA and stained with phycoerythrin (PE)-, FITC-, or Alexa647-conjugated anti-human CD63, CD66b, MMP9, and CD11b antibodies that detect extracellular epitopes of these markers. The cells were then washed and fixed in 1% paraformaldehyde in PBS. Samples were analyzed using a NovoCyte flow cytometer, and the data were processed using FlowJo software.

mouse neutrophils = test: Isoluminol-dependent chemiluminescence assay of MPO secretion in purified mouse neutrophils; format: cell-based
Description: FIGS. 3A-C illustrate the effect of Inhibitors C1, C2, C4, C5, and C6 and comparator Nexinhib 20 (shown as “C20”) on MPO secretion of mouse neutrophils. FIG. 3A is a schematic representation of a cell-based secondary screening assay used to analyze the potency the potency of Rab27a-JFC1 inhibitors for their ability to decrease exocytosis of intact human neutrophil. This cell-based assay measures the secretion of myeloperoxidase (MPO) by human neutrophils using cell-impermeant isoluminol-dependent chemiluminescence in the absence of exogenous peroxidases.
as §1
Extracellular MPO-dependent reactive oxygen species (ROS) production was measured using the chemiluminescence reactions mediated by isoluminol (25). To this end, 3×10^5 neutrophils were resuspended in serum-free RPMI 1640 medium in the presence of cell-impermeant isoluminol, and reactions were carried out in the absence of exogenous peroxidase. Neutrophils were incubated in the presence of compounds or DMSO (0.5%) pin-tooled into 384-well plates in a […]. Control experiments were run in parallel in the presence of [COMPOUND LEFT OUT] (0.5 mM) to inhibit endogenous myeloperoxidase. After addition of stimuli (phorbol 12-myristate 13-acetate, “PMA”) or vehicle using liquid handling devices (BioRaptor FRD, Beckman Coulter), MPO-dependent chemiluminescence was continuously monitored for 30 min at 37 °C using a 2104 EnVision multilabel plate reader. For secretion assays, 0.5×10^6 neutrophils were incubated in RPMI 1640 medium in polystyrene 96-well plates in the presence of Inhibitors or dimethyl sulfoxide (DMSO) control for 1 hour and stimulated for the indicated times at 37 °C with PMA (0.1 μg/ml), GM-CSF (10 ng/ml), and fMLP (1 μM) or DMSO control. The cells were spun down, and supernatants were transferred to clean plates using plate filters to avoid contamination from cellular secretory proteins. MPO was measured by ELISA (R&D Systems).
Results: FIG. 3B is a graph showing the effect of Inhibitors C1, C2, C4, C5, and C6 on secreted MPO-dependent reaction using the isoluminol-dependent chemiluminescence assay in highly purified mouse neutrophils. On the graph of FIG. 3B, the pre-fix “NS” means “no stimuli” where the cells were treated with 10 μM C1, C2, C4, C5, C6, and C20 alone without any exocytosis stimuli. The pre-fix “PMA” means the cells were stimulated with PMA to secrete MPO and were treated with 10 μM of the designated Inhibitor. […] Mean % inhibition: C1, 76.74; C2, 59.85; C4, 70.9; C6, 62.4; C20, 99.22.

wild-type neutrophils = test: Secretion by wild-type neutrophils; format: cell-based
[2] = test system: neutrophils that carry the NLRP3 A350V mutation; test: Secretion by bone-marrow-derived neutrophils from Nlrp3 A350V (CAPS) mice; format: cell-based, mouse; conditions: 10 μM, 1 hour, LPS and fMLF; for Mobilization of azurophilic granules (MPO) / Mobilization of gelatinase granules (MMP9) / Mobilization of CD63: FIG. 8; for Neutrophil secretion (hyperactivation of secretion): Nlrp3 A350V and wild type, FIG. 8A-C; for Mobilization of CD63: murine neutrophils
Description: FIG. 8A-C. […] A, gelatinase (MMP9) granules; B, azurophilic granules (MPO, myeloperoxidase); C, CD63 (an endolysosomal marker). […] Subsequently, neutrophils were either stimulated with lipopolisacharide (LPS) and the chemotatctic peptide fMLF or left untreated. C20 (Nexinhib20 is used as control). Mean±SEM, n=3. In this and subsequent figures, p<0.05; **, p<0.01; ***, p<0.001; ****, p<0.0001, ANOVA.
These compounds are now tested using neutrophils from a mouse model of Cryopyrin-Associated Periodic Syndrome (CAPS), a systemic inflammatory disease in humans, caused by gain-of-function mutations of the NOD-like receptor family member, cryopirin, also known as NLRP3 (J Cin Immunol 39, 277-286, doi:10.1007/s10875-019-00638-z (2019)). Heterozygous NLRP3 mutations lead to hyper-responsive NLRP3 inflammasome function characterized by increased caspase-1 (Casp1) activation and […], and is observed in patients and in animal models with NLRP3-gain-of-function mutations. […] Subsequently, neutrophils were either stimulated with LPS and the chemotatctic peptide fMLF or left untreated.

[3] = test system: human neutrophils (Gelatinase granule cargo MMP9); test: Flow cytometry of gelatinase granule exocytosis (MMP9) in human neutrophils; format: cell-based; conditions: 1 hour, GM-CSF + fMLP; for Inhibition in MMP9 experiment (words; printed as CD66b up-regulation): 10 μM, relative to DMSO, FIG. 6; for inhibition at 10 µM: Homo sapiens, Neutrophil, N=12 donors, FIG. 6, read-out: % Inhibition of MMP9 up-regulation
Description: as §1, §2

[4] = test system: human neutrophils (azurophilic granule marker CD63); test: Flow cytometry of azurophilic granule mobilization (CD63) in human neutrophils; format: cell-based; conditions: 1 hour, GM-CSF + fMLP; for Inhibition of CD63 up-regulation: 10 μM, relative to DMSO, FIG. 4; for inhibition at 10 µM: Homo sapiens, Neutrophil, N=15 donors, FIG. 4, read-out: Mean % inhibition of CD63 up-regulation
Description: as §1, §2

[5] = test system: human neutrophils (specific granule marker CD66b); test: Flow cytometry of specific granule exocytosis (CD66b) in human neutrophils; format: cell-based; conditions: 1 hour, GM-CSF + fMLP; for Inhibition of CD66b up-regulation: relative to DMSO; for inhibition at 10 µM: Homo sapiens, Neutrophil, FIG. 5, read-out: % inhibition of CD66b up-regulation
Description: as §1, §2

[6] = 10 μM inhibitor, PMA stimulated, FIG. 3B
[7] = Mus musculus, Neutrophil, 10 μM inhibitor, PMA stimulated, FIG. 3B

SMILES	Release of CD11b+ vesicles / CD11b upregulation [1]	Inhibition of exocytosis vs DMSO control (mouse neutrophils; [6])	inhibition at 10 µM (mouse neutrophils; [7])	IC50 (mouse neutrophils; Mus musculus, Neutrophil, dose-response analysis, FIG. 3C)	Inhibitory effect on wild-type neutrophils (wild-type neutrophils)	Mobilization of azurophilic granules (MPO) [2]	Mobilization of gelatinase granules (MMP9) [2]	Neutrophil secretion (hyperactivation of secretion) ([2]; listed as C1)	Neutrophil secretion (hyperactivation of secretion) ([2]; listed as NEIa-C1)	Mobilization of CD63 [2]	Inhibition in MMP9 experiment (words; printed as CD66b up-regulation) [3]	inhibition at 10 µM [3]	Inhibition of CD63 up-regulation [4]	inhibition at 10 µM [4]	Inhibition of CD66b up-regulation ([5]; 10 μM, FIG. 5)	inhibition at 10 µM ([5]; N=12 donors)	Neutrophil secretion (hyperactivation of secretion) [2]	Mean % inhibition of MPO-dependent chemiluminescence (MPO secretion) (mouse neutrophils; [6])	% inhibition of CD66b up-regulation ([5]; 10 μM, N=12 donors, FIG. 5)
CN(C)c1cccc(/C=C(/C(=O)C(C)(C)C)n2cncn2)c1 [150 (C1)]	unaffected	significant inhibition of exocytosis	76.7%	860 nM	selective inhibitory effect on wild-type neutrophils	inhibit the mobilization	inhibit the mobilization of gelatinase granules (MMP9)	inhibit the hyperactivation of secretion	significantly inhibit secretion	significantly inhibited the mobilization of CD63	marked inhibition of CD66b up-regulation	55.3%	marked and significant inhibition of CD63 up-regulation	93.1%	marked and significant inhibition of CD66b up-regulation	57.6%	–	–	–
CC(C)(C)C(=O)C(=Cc1cccc(O)c1)n1cncn1 [151 (C2)]	unaffected	significant inhibition of exocytosis	59.9%	–	selective inhibitory effect on wild-type neutrophils	–	–	–	–	–	marked inhibition of CD66b up-regulation	26.5%	marked and significant inhibition of CD63 up-regulation	59.5%	marked and significant inhibition of CD66b up-regulation	35.8%	–	–	–
O=C(Nc1ccccc1)/C(=C/c1cccc([N+](=O)[O-])c1)n1cncn1 [152 (C4)]	unaffected	significant inhibition of exocytosis	70.9%	–	selective inhibitory effect on wild-type neutrophils	inhibit the mobilization	inhibit the mobilization of gelatinase granules (MMP9)	–	–	significantly inhibited the mobilization of CD63	–	16.4%	–	–	marked and significant inhibition of CD66b up-regulation	48.1%	inhibit the hyperactivation of secretion	–	–
CNC(=O)/C(=C/c1cccc([N+](=O)[O-])c1)n1cncn1 [153 (C5)]	unaffected	–	–	–	–	–	–	–	–	–	–	–	–	–	–	–	–	–	–
CC(C)(C)C(=O)/C(=C/c1cccc([N+](=O)[O-])c1)n1cncn1 [Nexinhib20, reference compound]	significantly inhibited CD11b upregulation at the plasma membrane (to levels lower than basal controls)	–	–	–	–	–	–	–	–	–	marked inhibition of CD66b up-regulation	–	marked and significant inhibition of CD63 up-regulation	–	marked and significant inhibition of CD66b up-regulation	–	–	99.22%	100%
